Experimental findings from US20260125389A1, “MEMBRANE-ASSOCIATED TYROSINE AND THREONINE KINASE INHIBITOR AND USE THEREOF” (HAINAN SIMCERE ZAIMING PHARMACEUTICAL CO., LTD., priority 2022, published 2026) are described below.

As a reminder, the pIC50 is −log10 of the IC50, conventionally taken in molar units.

pIC50: −log10 of the molar value.

The test system of the experiment is HCC1569 cells. Kind of experiment: Inhibition of tumor cell proliferation (CTG, HCC1569). The format is cell-based. Particulars: Homo sapiens, 168 h, 7 days incubation, CTG readout, read-out: IC50 of compounds for inhibition of HCC1569 cell growth. The protocol:
Experimental principle: The compound was incubated with tumor cells for 7 days, and ATP in viable cells was quantified using the CTG kit from Promega to evaluate the effect of the compound on tumor cell proliferation.
Experimental method: The cultured cells were resuspended after being rinsed with PBS (for adherent cells) and digested with 0.25% Trypsin-EDTA, followed by cell counting to determine cell density and viability. 3000 HCC1569 cells/well were diluted with RPMI Medium 1640 containing 10% FBS, added to a 96-well plate (90 μL/well), and cultured in an incubator at 37° C. with 5% CO2 for 24 h. The test compound was diluted to different concentrations in dimethyl sulfoxide (DMSO) and added to a 96-well plate. Thus, the final concentration of the compound in the reaction system started at 25 μM and was subjected to a 4-fold serial dilution, with the final DMSO concentration maintained at 0.25%. The compound and cells were further incubated at 37° C. with 5% CO2 for 7 days. 50 μL/well of CTG was then added to measure the inhibitory effect of the compound on tumor cell growth, and the inhibition rate and half-maximal inhibitory concentration (IC50) were calculated.
The % compound inhibition was calculated and fitted using XLfit software to obtain the IC50 of the compound.
Blank wells and DMSO wells were set up. The blank well contained 100 μL of RPMI Medium 1640 with 10% FBS, where the inhibition rate of the compound on tumor cell growth was considered 100%. The DMSO well contained 0.25% DMSO added to the cell well, where the inhibition rate of the compound on tumor cell growth was considered 0%.
For `Cc1nc2c3c(c(N)n(-c4c(C)ccc(O)c4C)c3n1)C(=O)NCc1ccccc1-2` [Compound 3, 2-amino-1-(3-hydroxy-2,6-dimethylphenyl)-11-methyl-4,5-dihydro-1,4,10,12-tetraazabenzo[4,5]cyclooctatetraeno[1,2,3-cd]inden-3(1H)-one], the pIC50 is 6.53.
`Cc1nc2c3c(c(N)n(-c4c(C)ccc(O)c4C)c3n1)C(=O)NCc1ncccc1-2` [Compound 4, 2-amino-1-(3-hydroxy-2,6-dimethylphenyl)-11-methyl-4,5-dihydro-1,4,6,10,12-pentaazabenzo[4,5]cyclooctatetraeno[1,2,3-cd]inden-3(1H)-one]: the pIC50 is 6.62.
Next, `Cc1nc2c3c(c(N)n(-c4c(C)ccc(O)c4C)c3n1)C(=O)NCc1cnccc1-2` [Compound 5, 2-amino-1-(3-hydroxy-2,6-dimethylphenyl)-11-methyl-4,5-dihydro-1,4,7,10,12-pentaazabenzo[4,5]cyclooctatetraeno[1,2,3-cd]inden-3(1H)-one]: 6.27; `Cc1nc2c3c(c(N)n(-c4c(C)ccc(O)c4C)c3n1)C(=O)NCc1nn(C)cc1-2` [Compound 8, 2-amino-1-(3-hydroxy-2,6-dimethylphenyl)-7,10-dimethyl-1,4,5,7-tetrahydro-3H-1,4,6,7,9,11-hexaazacyclopenta[4,5]cyclooctatetraeno[1,2,3-cd]inden-3-one]: 6.11.
As for `Cc1ccc2c(n1)CNC(=O)c1c(N)n(-c3c(C)ccc(O)c3C)c3nc(C)nc-2c13` [Compound 9, 2-amino-1-(3-hydroxy-2,6-dimethylphenyl)-7,11-dimethyl-4,5-dihydro-1,4,6,10,12-pentaazabenzo[4,5]cyclooctatetraeno[1,2,3-cd]inden-3(1H)-one], the pIC50 was 6.68.
As for `COc1cccc2c1CNC(=O)c1c(N)n(-c3c(C)ccc(O)c3C)c3nc(C)nc-2c13` [Compound 11, 2-amino-1-(3-hydroxy-2,6-dimethylphenyl)-6-methoxy-11-methyl-4,5-dihydro-1,4,10,12-tetraazabenzo[4,5]cyclooctatetraeno[1,2,3-cd]inden-3(1H)-one], the figure is 7.23.
With `Cc1nc2c3c(c(N)n(-c4c(C)ccc(O)c4C)c3n1)C(=O)Nc1c-2cnn1C` [Compound 12, 5-amino-4-(3-hydroxy-2,6-dimethylphenyl)-2,8-dimethyl-7,8-dihydro-1,3,4,7,8,9-hexaazabenzo[cd]cyclopenta[f]azulen-6(4H)-one], the pIC50 was 8.04.
As for `Cc1nc2c3c(c(N)n(-c4c(C)ccc(O)c4C)c3n1)C(=O)Nc1nn(C)cc1-2` [Compound 13, 2-amino-1-(3-hydroxy-2,6-dimethylphenyl)-6,9-dimethyl-4,6-dihydro-1,4,5,6,8,10-hexaazabenzo[cd]cyclopenta[f]azulen-3(1H)-one], the figure is 7.56; as for `Cc1nc2c3c(c(N)n(-c4c(C)ccc(O)c4C)c3n1)C(=O)Nc1nn(CC(F)(F)F)cc1-2` [Compound 14, 2-amino-1-(3-hydroxy-2,6-dimethylphenyl)-9-methyl-6-(2,2,2-trifluoroethyl)-4,6-dihydro-1,4,5,6,8,10-hexaazabenzo[cd]cyclopenta[f]azulen-3(1H)-one], 6.60.
Consider `Cc1nc2c3c(c(N)n(-c4c(C)ccc(O)c4C)c3n1)C(=O)Nc1c(F)cncc1-2` [Compound 16, 5-amino-8-fluoro-4-(3-hydroxy-2,6-dimethylphenyl)-2-methyl-4,7-dihydro-6H-1,3,4,7,10-pentaazadibenzo[cd,f]azulen-6-one], for which the pIC50 is 6.58.
As for `Cc1nc2c3c(c(N)n(-c4c(C)ccc(O)c4C)c3n1)C(=O)Nc1ncccc1-2` [Compound 17, 5-amino-4-(3-hydroxy-2,6-dimethylphenyl)-2-methyl-4,7-dihydro-6H-1,3,4,7,8-pentaazadibenzo[cd,f]azulen-6-one], the figure is 7.61; as for `Cc1nc2c3c(c(N)n(-c4c(C)ccc(O)c4C)c3n1)C(=O)Nc1cnccc1-2` [Compound 18, 5-amino-4-(3-hydroxy-2,6-dimethylphenyl)-2-methyl-4,7-dihydro-6H-1,3,4,7,9-pentaazadibenzo[cd,f]azulen-6-one], 7.96; as for `Cc1nc2c3c(c(N)n(-c4c(C)ccc(O)c4C)c3n1)C(=O)Nc1ccncc1-2` [Compound 19, 5-amino-4-(3-hydroxy-2,6-dimethylphenyl)-2-methyl-4,7-dihydro-6H-1,3,4,7,10-pentaazadibenzo[cd,f]azulen-6-one], 7.30.
In the case of `Cc1nc2c3c(c(N)n(-c4c(C)ccc(O)c4C)c3n1)C(=O)Nc1cccnc1-2` [Compound 20, 5-amino-4-(3-hydroxy-2,6-dimethylphenyl)-2-methyl-4,7-dihydro-6H-1,3,4,7,11-pentaazadibenzo[cd,f]azulen-6-one], the pIC50 is 7.59.
As for `COc1nccc2c1CNC(=O)c1c(N)n(-c3c(C)ccc(O)c3C)c3nc(C)nc-2c13` [Compound 23, 2-amino-1-(3-hydroxy-2,6-dimethylphenyl)-6-methoxy-11-methyl-4,5-dihydro-1,4,7,10,12-pentaazabenzo[4,5]cyclooctatetraeno[1,2,3-cd]inden-3(1H)-one], the figure is 7.60; as for `Cc1nc2c3c(c(N)n(-c4c(C)ccc(O)c4C)c3n1)C(=O)NCc1c(C#N)cccc1-2` [Compound 27, 2-amino-1-(3-hydroxy-2,6-dimethylphenyl)-11-methyl-3-oxo-1,3,4,5-tetrahydro-1,4,10,12-tetraazabenzo[4,5]cyclooctatetraeno[1,2,3-cd]indene-6-carbonitrile], 6.88.
As for `Cc1nc2c3c(c(N)n(-c4c(C)ccc(O)c4C)c3n1)C(=O)NCc1nc(C3CC3)ccc1-2` [Compound 28, 2-amino-7-cyclopropyl-1-(3-hydroxy-2,6-dimethylphenyl)-11-methyl-4,5-dihydro-1,4,6,10,12-pentaazabenzo[4,5]cyclooctatetraeno[1,2,3-cd]inden-3(1H)-one], the pIC50 was 7.15.
Turning to `Cc1nc2c3c(c(N)n(-c4c(C)ccc(O)c4C)c3n1)C(=O)NCc1nc(C(F)(F)F)ccc1-2` [Compound 29, 2-amino-1-(3-hydroxy-2,6-dimethylphenyl)-11-methyl-7-(trifluoromethyl)-4,5-dihydro-1,4,6,10,12-pentaazabenzo[4,5]cyclooctatetraeno[1,2,3-cd]inden-3(1H)-one], the pIC50 was 6.25.
For `COc1c(F)ccc2c1CNC(=O)c1c(N)n(-c3c(C)ccc(O)c3C)c3nc(C)nc-2c13` [Compound 30, 2-amino-7-fluoro-1-(3-hydroxy-2,6-dimethylphenyl)-6-methoxy-11-methyl-4,5-dihydro-1,4,10,12-tetraazabenzo[4,5]cyclooctatetraeno[1,2,3-cd]inden-3(1H)-one], the pIC50 was 6.51.
On to `Cc1nc2c3c(c(N)n(-c4c(C)ccc(O)c4C)c3n1)C(=O)NCc1nc(OC3CC3)ccc1-2` [Compound 31, 2-amino-7-cyclopropoxy-1-(3-hydroxy-2,6-dimethylphenyl)-11-methyl-4,5-dihydro-1,4,6,10,12-pentaazabenzo[4,5]cyclooctatetraeno[1,2,3-cd]inden-3(1H)-one], for which the pIC50 was 6.53.
Turning to `Cc1nc2c3c(c(N)n(-c4c(C)ccc(O)c4C)c3n1)C(=O)NCc1nc(CO)ccc1-2` [Compound 32, 2-amino-1-(3-hydroxy-2,6-dimethylphenyl)-7-(hydroxymethyl)-11-methyl-4,5-dihydro-1,4,6,10,12-pentaazabenzo[4,5]cyclooctatetraeno[1,2,3-cd]inden-3(1H)-one], the pIC50 is 6.10.
On to `Cc1nc2c3c(c(N)n(-c4c(C)ccc(O)c4C)c3n1)C(=O)Nc1c-2cnn1C1CC1` [Compound 33, 5-amino-8-cyclopropyl-4-(3-hydroxy-2,6-dimethylphenyl)-2-methyl-7,8-dihydro-1,3,4,7,8,9-hexaazabenzo[cd]cyclopenta[f]azulen-6(4H)-one], for which the pIC50 was 7.31.
Next, `Cc1nc2c3c(c(N)n(-c4c(C)ccc(O)c4C)c3n1)C(=O)Nc1c-2c(C)nn1C` [Compound 34, 2-amino-1-(3-hydroxy-2,6-dimethylphenyl)-5,7,9-trimethyl-4,5-dihydro-1,4,5,6,8,10-hexaazabenzo[cd]cyclopenta[f]azulen-3(1H)-one]: 8.04; `CCc1nccc2c1CNC(=O)c1c(N)n(-c3c(C)ccc(O)c3C)c3nc(C)nc-2c13` [Compound 35, 2-amino-6-ethyl-1-(3-hydroxy-2,6-dimethylphenyl)-11-methyl-4,5-dihydro-1,4,7,10,12-pentaazabenzo[4,5]cyclooctatetraeno[1,2,3-cd]inden-3(1H)-one]: 7.39.
In the case of `Cc1nc2c3c(c(N)n(-c4c(C)ccc(O)c4C)c3n1)C(=O)NCc1c-2ccnc1C` [Compound 36, 2-amino-1-(3-hydroxy-2,6-dimethylphenyl)-6,11-dimethyl-4,5-dihydro-1,4,7,10,12-pentaazabenzo[4,5]cyclooctatetraeno[1,2,3-cd]inden-3(1H)-one], the pIC50 was 7.20.
For `Cc1nc2c3c(c(N)n(-c4c(C)ccc(O)c4C)c3n1)C(=O)Nc1sncc1-2` [Compound 37, 5-amino-4-(3-hydroxy-2,6-dimethylphenyl)-2-methyl-4,7-dihydro-6H-8-thia-1,3,4,7,9-pentaazabenzo[cd]cyclopenta[f]azulen-6-one], the pIC50 is 7.47.
